# Laboratory results taken from article PMC12645589, “mPEG@ELA-11 Alleviates Atherosclerosis via AKT-ER Stress-Mediated Macrophage Modulation” (BME Frontiers, 2025).
# Like-named read-outs stand apart in the source and are kept apart here.
# Tests used:
# [1] = test system: RAW264.7 macrophages; experiment: Foam cell formation, Oil Red O staining; format: cell-based, murine; conditions: n = 3; for effect of co-treatment on the protective (foam cell inhibiting) effect of ELA-11: ox-LDL 50 μg/ml 48 h + ELA-11, modulator 1 μM, vs ox-LDL + ELA-11 group
# Procedure: To assess the impact of ELA-11 on foam cell formation, RAW264.7 macrophages were pretreated with ELA-11 (1 μM) for 2 h before being exposed to ox-LDL (50 μg/ml) for 48 h.
# (§1) For foam cell formation assays, cells were seeded in 6-well plates at 1 × 10^6 cells/well. Cells were pretreated with ELA-11 (1 μM) for 2 h before exposure to oxidized low-density lipoprotein (ox-LDL, 50 or 100 μg/ml) for 48 h. Where indicated, cells were cotreated with tunicamycin (1 μM, ER stress activator), ML221 (1 μM, APJ receptor antagonist), Recilisib (1 μM, AKT activator), or 4-PBA (1 μM, ER stress inhibitor).
# Cells were fixed with 4% paraformaldehyde for 30 min, rinsed with 60% isopropanol, and stained with Oil Red O working solution for 10 min. After washing with distilled water, stained cells were imaged using a light microscope. For quantification, staining intensity was analyzed using ImageJ software.
# [2] = test system: RAW264.7 macrophages; experiment: CCK-8 cell viability assay; format: cell-based, murine
# Procedure: Finally, the cytotoxicity of mPEG@ELA-11 was assessed using the CCK-8 assay. […] The absence of cytotoxicity is a critical factor for the potential clinical application of mPEG@ELA-11.
# Cell viability was assessed using the CCK-8 kit (Biosharp, China) according to the manufacturer’s instructions. Cells were seeded in 96-well plates at 1 × 10^5 cells/ml and treated with various compounds for 24 to 72 h before analysis.
# [3] = test system: ApoE^-/- mice; experiment: Biosafety evaluation in mice (histology, body weight, blood biochemistry); conditions: for histopathological changes in major organs (heart, liver, spleen, lungs, and kidneys): 1 mg/kg every 3 days; for tissue morphology of heart, liver, spleen, lungs, and kidneys (H&E), long-term toxicity: 1 mg/kg via the tail vein, once every 3 days for 2 consecutive months, n = 6; for changes in body weight: throughout the treatment period, n=6, p>0.05
# Procedure: To evaluate the safety and biocompatibility of the treatments, histological analysis was performed on major organs (heart, liver, spleen, lungs, and kidneys) from all groups.
# At the study endpoint, mice were euthanized under isoflurane anesthesia. Blood was collected for biochemical analysis, and the entire aorta was harvested from the ascending aorta to the iliac bifurcation.
# Histological examination of the heart, liver, spleen, lungs, and kidneys in different treatments groups which were respectively injected with the same dose (1 mg/kg) of PBS, ELA-11, and mPEG@ELA-11 via the tail vein, once every 3 days for 2 consecutive months. […] Representative images were chosen from n = 6 mice per group.
# [4] = test system: AKT phosphorylation; experiment: Western blot of AKT phosphorylation; format: cell-based, murine; conditions: ox-LDL + ELA-11 + modulator (1 μM), n = 3
# Procedure: as §1
# (§2) Cells were lysed in RIPA buffer supplemented with protease and phosphatase inhibitors. Equal protein amounts were separated by 10% sodium dodecyl sulfate–polyacrylamide gel electrophoresis, followed by transfer to polyvinylidene fluoride membranes. Membranes were blocked with 5% milk and incubated overnight at 4 °C with primary antibodies against p-PERK, PERK, p-eIF2α, eIF2α, ATF4, CHOP, p-AKT, AKT, and GAPDH, followed by horseradish peroxidase-conjugated secondary antibodies. Protein bands were visualized using enhanced chemiluminescence reagents.
# [5] = test system: ER stress-associated proteins (p-PERK, p-eIF2α, CHOP, and ATF4); experiment: Western blot of ER stress markers; format: cell-based, murine; conditions: ox-LDL + ELA-11 + modulator (1 μM), n = 3
# Procedure: as §1, §2
# [6] = test system: ApoE^-/- mice; experiment: Atherosclerosis in ApoE-/- mice fed a high-fat diet; format: in vivo; conditions: HFD
# Excerpt: To evaluate the therapeutic efficacy of ELA-11 in AS, ApoE^-/- mice fed a high-fat diet (HFD) were utilized as an established AS model. Male ApoE^-/- mice were randomly allocated into 3 groups (n = 6 per group): a control group fed a normal chow diet (NCD), an HFD group treated with phosphate-buffered saline (HFD + PBS), and a treatment group treated with ELA-11 (HFD + ELA-11). ApoE^-/- mice were initiated on HFD at 8 weeks of age. Four weeks later, at the beginning of the fifth week of HFD feeding, mice in the HFD + ELA-11 group received intraperitoneal injections of ELA-11 (1 mg/kg) every 3 days for a total of 19 injections. Mice were sacrificed at 20 weeks of age (Fig. 4A).
# To evaluate the therapeutic potential of mPEG@ELA-11 NPs in vivo, a series of experiments were conducted using ApoE^-/- mice fed an HFD for 3 months to induce AS. The mice were randomly assigned to 4 groups (n = 6): a negative control group fed an NCD, an HFD group treated with PBS (HFD + PBS), an HFD group treated with free ELA-11 (HFD + ELA-11), and an HFD group treated with mPEG@ELA-11 NPs (HFD + mPEG@ELA-11). The administration route, frequency, and dosage were the same as described above.
# Male ApoE^-/- mice (26 to 31 g, 8 weeks old) were obtained from GemPharmatech Co., Ltd. and housed under specific pathogen-free conditions. Mice were randomly allocated into 4 groups (n = 6/group): NCD, HFD + PBS, HFD + ELA-11, and HFD + mPEG@ELA-11. The HFD (Research Diets D12079B) consisted of 21% fat and 0.21% cholesterol. Drug treatments (1 mg/kg) were administered intraperitoneally every 3 days for 8 weeks, beginning at week 13. All animal procedures were approved by the institutional animal care committee.
# [7] = test system: ApoE^-/- mice; experiment: Serum inflammatory markers and lipids in treated ApoE-/- mice; format: in vivo
# Excerpt: At the study endpoint, mice were euthanized under isoflurane anesthesia. Blood was collected for biochemical analysis, and the entire aorta was harvested from the ascending aorta to the iliac bifurcation. For en face analysis, aortas were stained with Oil Red O. The aortic root was sectioned for histological analysis, including Oil Red O, H&E, Masson’s trichrome, and immunofluorescence staining for CD31 and α-SMA.
# [8] = Nanoparticle size by DLS and TEM; format: physicochemical
# Procedure: The slight difference between DLS and TEM measurements is expected, as DLS measures the hydrodynamic diameter in solution, while TEM visualizes dehydrated NPs.
# (§3) NP characterization was performed using FT-IR, NMR, DLS, and TEM. pH-responsive drug release was evaluated at pH values of 5.5, 6.5, and 7.4. For fluorescence imaging, NPs were labeled with ICG, Cy5 or Cy5.5.
# [9] = pH-responsive in vitro release of ELA-11; format: physicochemical
# Procedure: To assess the pH-responsive release behavior of mPEG@ELA-11, in vitro release studies were conducted. […] At 12 h post-injection, only 45% of Cy5-mPEG@ELA-11 was degraded, while 70% of Cy5-ELA-11 had already been degraded.
# as §3
# [10] = Colloidal stability in physiological media over 5 days; format: physicochemical; conditions: mean ± SD
# Procedure: The colloidal stability of mPEG@ELA-11 was evaluated in various physiological media over a 5-day period. The hydrodynamic diameter remained stable in PBS, serum, and 1640 culture medium, with only minor increases observed over time (Fig. 5E). On day 1, the sizes in PBS, serum, and 1640 medium were 36 ± 2.12, 43 ± 3.01, and 44 ± 4.53 nm, respectively. By day 5, these had increased slightly to 42 ± 3.36, 49 ± 3.49, and 50 ± 2.98 nm, respectively.
# [11] = n = 6, P < 0.05, the words describe the HFD group, i.e. treated groups lower
compound,measurement,setting,value
"O=C(O)CCCc1ccccc1 [4-PBA, 4-phenylbutyric acid]","foam cell formation (Oil Red O), rescue experiment","[1]; ox-LDL 50 μg/ml 48 h, cotreatment, P < 0.0001 vs ox-LDL group",comparable
CSCC[C@H](NC(=O)[C@@H](N)CS)C(=O)N1CCC[C@H]1C(=O)N[C@@H](CC(C)C)C(=O)N[C@@H](Cc1cnc[nH]1)C(=O)N[C@@H](CO)C(=O)N[C@@H](CCCNC(=N)N)C(=O)N[C@H](C(=O)N1CCC[C@H]1C(=O)N[C@@H](Cc1ccccc1)C(=O)N1CCC[C@H]1C(=O)O)C(C)C [ELA-11],cytotoxicity (cell viability assay),[2],no significant cytotoxicity
same,"histopathological changes in major organs (heart, liver, spleen, lungs, and kidneys)",[3],No significant histopathological changes
same,"tissue morphology of heart, liver, spleen, lungs, and kidneys (H&E), long-term toxicity",[3],no appreciable changes in tissue morphology
same,changes in body weight,[3],No significant histopathological changes in any of the organs or abnormal changes in body weight were observed
O=C(Oc1coc(CSc2ncccn2)cc1=O)c1ccc([N+](=O)[O-])cc1 [ML221],effect of co-treatment on the inhibition of AKT signaling by ELA-11,[4],attenuated
same,cytotoxicity (cell viability assay),[2],no significant cytotoxicity
same,effect of co-treatment on the suppression of ER stress markers by ELA-11,[5],partially reverse
same,effect of co-treatment on the protective (foam cell inhibiting) effect of ELA-11,[1],significantly attenuated
O=C(O)c1ccc(/C=C/S(=O)(=O)Cc2ccc(Cl)cc2)cc1 [Recilisib],effect of co-treatment on the suppression of ER stress markers by ELA-11,[5],lost its inhibitory effect
same,effect of co-treatment on the protective (foam cell inhibiting) effect of ELA-11,[1],reversed
Tunicamycin,effect of co-treatment on the inhibition of AKT signaling by ELA-11,[4],maintained its inhibitory effect
same,cytotoxicity (cell viability assay),"[2]; CCK-8, ox-LDL-induced Raw264.7 macrophages, concentrations employed in the study, 24 and 48 hours, n=4, p > 0.05 (Fig. S1)",no significant cytotoxicity
same,effect of co-treatment on the suppression of ER stress markers by ELA-11,[5],diminished
same,effect of co-treatment on the protective (foam cell inhibiting) effect of ELA-11,[1],significantly attenuated
methoxy polyethylene glycol@Elabela-11 [mPEG@ELA-11],"necrotic core size in aortic root sections, compared to free ELA-11","[6]; 1 mg/kg i.p. every 3 days, H&E, n = 6, P < 0.05",more substantial decrease
same,"overall plaque area in aortic root sections, compared to free ELA-11","[6]; 1 mg/kg i.p. every 3 days, Oil Red O, n = 6, P < 0.001",more substantial decrease
same,"collagen content within the plaques (Masson's trichrome, aortic root)","[6]; 1 mg/kg i.p. every 3 days, n = 6, P < 0.0001, no significant difference between the 2 treatment groups",increased collagen content
same,"atherosclerotic plaque area of the entire aorta (Oil Red O), compared to free ELA-11","[6]; 1 mg/kg i.p. every 3 days, n = 6, P < 0.001",greater reduction
same,integrity of the vascular endothelium (CD31 immunofluorescence),"[6]; n = 6, P < 0.001, P < 0.0001",more effective than free ELA-11
same,smooth muscle cell proliferation in the plaque area (α-SMA immunofluorescence),"[6]; vs ELA-11 and HFD + PBS group, n = 6, P < 0.05, P < 0.01",significantly inhibited smooth muscle cell proliferation
same,IL-1β levels in blood serum,"[7]; HFD, among the groups, n = 6",no significant differences
same,IL-6 in blood serum compared to the HFD group,"[7]; HFD, n = 6, P < 0.05",significantly lower
same,TNF-α in blood serum compared to the HFD group,"[7]; HFD, n = 6, P < 0.05",significantly lower
same,LDL-C: HFD group compared to the treatment group,[7]; [11],significantly higher
same,total cholesterol: HFD group compared to the treatment group,[7]; [11],significantly higher
same,triglycerides: HFD group compared to the treatment group,[7]; [11],significantly higher
same,size (TEM),[8]; dehydrated NPs,~ 25 nm
same,hydrodynamic diameter (DLS),[8]; in PBS,~ 35 nm
same,release of ELA-11,"[9]; pH 5.5, after 48 h",91.2%
same,release of ELA-11,"[9]; pH 6.5, after 48 h",74.1%
same,release of ELA-11,"[9]; pH 7.4, after 48 h",38.7%
same,"hydrodynamic diameter, colloidal stability","[10]; 1640 culture medium, day 1",44 ± 4.53 nm
same,"hydrodynamic diameter, colloidal stability","[10]; 1640 culture medium, day 5",50 ± 2.98 nm
same,"hydrodynamic diameter, colloidal stability","[10]; PBS, day 1",36 ± 2.12 nm
same,"hydrodynamic diameter, colloidal stability","[10]; PBS, day 5",42 ± 3.36 nm
same,"hydrodynamic diameter, colloidal stability","[10]; serum, day 1",43 ± 3.01 nm
same,"hydrodynamic diameter, colloidal stability","[10]; serum, day 5",49 ± 3.49 nm
same,"histopathological changes in major organs (heart, liver, spleen, lungs, and kidneys)",[3],No significant histopathological changes
same,"tissue morphology of heart, liver, spleen, lungs, and kidneys (H&E), long-term toxicity",[3],no appreciable changes in tissue morphology
same,changes in body weight,[3],No significant histopathological changes in any of the organs or abnormal changes in body weight were observed
